In paper PMC5199340, “RET Functions as a Dual-Specificity Kinase that Requires Allosteric Inputs from Juxtamembrane Elements” (Cell Reports, 2016):

Key:
RET [1] = molecular target: T1, RET (Homo sapiens, UniProt P07949); test: isothermal titration calorimetry (ITC); assay type: binding
T1 construct: RET JM-KD (residues 661–1012)
T1 sequence (P07949 661-1012): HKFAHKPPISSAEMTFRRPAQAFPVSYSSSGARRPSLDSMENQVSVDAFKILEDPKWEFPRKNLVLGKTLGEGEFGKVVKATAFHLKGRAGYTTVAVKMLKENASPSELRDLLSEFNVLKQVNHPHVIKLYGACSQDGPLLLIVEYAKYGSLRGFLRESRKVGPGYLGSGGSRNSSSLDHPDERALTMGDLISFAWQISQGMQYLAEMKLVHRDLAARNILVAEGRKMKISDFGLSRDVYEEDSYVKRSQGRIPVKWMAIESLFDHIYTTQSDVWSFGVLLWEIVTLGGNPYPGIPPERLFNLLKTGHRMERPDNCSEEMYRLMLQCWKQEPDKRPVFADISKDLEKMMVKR

RET [2] = molecular target: T2, RET (Homo sapiens, UniProt P07949); test: X-ray crystal structures ([…] Å and […] Å); assay type: binding
T2 construct: RET JM-KD (residues 659–1013), phosphorylated (Y809, Y905, S909, Y928)
T2 sequence (P07949 659-1013): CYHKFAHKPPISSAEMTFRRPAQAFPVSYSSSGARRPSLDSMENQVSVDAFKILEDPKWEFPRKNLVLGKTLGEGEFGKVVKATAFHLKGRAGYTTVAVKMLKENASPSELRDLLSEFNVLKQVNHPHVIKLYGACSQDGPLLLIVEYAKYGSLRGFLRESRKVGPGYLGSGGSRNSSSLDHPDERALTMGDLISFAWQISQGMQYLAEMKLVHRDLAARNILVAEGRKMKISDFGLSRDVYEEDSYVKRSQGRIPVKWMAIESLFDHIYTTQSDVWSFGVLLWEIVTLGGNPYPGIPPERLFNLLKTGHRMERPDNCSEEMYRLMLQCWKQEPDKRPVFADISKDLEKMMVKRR

Compound | Kd (RET [1]) [µM] | X-ray crystal structures (2.95 Å and 3.3 Å) (RET [2])
Nc1ncnc2c1ncn2[C@@H]1O[C@H](COP(=O)(O)OP(=O)(O)OP(=O)(O)O)[C@@H](O)[C@H]1O [ATP] | 37.5 ± 3.1 | 
Cc1ccc(-c2nn(C(C)(C)C)c3ncnc(N)c23)cc1 [PP1] |  | Both crystal structures contained the PP1 tyrosine kinase inhibitor in the nucleotide-binding pocket
